# Literature values as cited in paper PMC10482267, “Safety, tolerability, pharmacokinetics, and pharmacodynamics of single and multiple doses of aficamten in healthy Chinese participants: a randomized, double-blind, placebo-controlled, phase 1 study” (Frontiers in Pharmacology, 2023).
# Set-up: method as in Heitner et al., 2019; Olivotto et al., 2020
# Settings: humans; ref Heitner et al., 2019; Olivotto et al., 2020; cited from earlier work
smiles,measurement,value
"CC(C)n1c(=O)cc(N[C@@H](C)c2ccccc2)[nH]c1=O [Mavacamten, mavacamten]",time to steady-state,approximately 6 weeks
